# From US7112318B2, “Non-invasive diagnostic imaging technology for mitochondria dysfunction using radiolabeled lipophilic salts” (The Johns Hopkins University, priority 2002, dated 2006)
# “And” between values parts separate entries of the source, which are not always exact repeats. Equal entries are not always repeated. Where two headings read alike, the source gives them in different places.
# What was measured:
# myocardium [1] = settings: cited from earlier work; for myocardial extraction under baseline / normal flow: baseline or normal flow; for myocardial extraction at increased flow: five-fold increases in flow rate / high flow rates
# [2] = Biodistribution in mice 60 min after i.v. injection; settings: 60 min after iv. injection
# Procedure: (§1) Three to five mice were used for the biodistribution study of each tracer. Nonanesthetized animals were injected i.v. with tracer solution (FBnTP or FPTP, TPMP 25 μCi; MIBI 40 μCi; TPP 2 μCi, all in a volume of 0.2 mL saline) then killed by neck dislocation at 60 min after injection. The organs and tissues of interest were removed and counted by a radioactivity counter along with standards (1:1000) (LKB Wallac, 1282 Compugamma CS).
# myocardium [3] = assay: C-11-TPMP uptake kinetics in the myocardium (dog PET, LAD occlusion); format: in vivo
# Procedure: We have examined the performance of C-11-triphenyl phosphonium cation (TPMP) for assessing regional myocardial flow in dog using PET (Kraus, 1994).
# Methods: Four mCi of C-11-TPMP were introduced i.v., and dynamic images of increasing duration (15 sec to 20 min) were acquired over a total time of 85 min. Images were acquired on the GE 4096+ PET scanner (15 slices, 6.5 mm slice thickness). Images were reconstructed using backprojection, and corrected for attenuation. A detailed description of methods appears in Kraus, 1994.
# To investigate the relationship between myocardial blood flow and C-11-TPMP uptake in the heart, the LAD was occluded and the C-11-TPMP accumulation in tissue samples compared to microsphere determined regional myocardial blood flow. A significant correlation (r=0.93, p<0.01) was found at 5 min after LAD occlusion (FIG. 12). The non-infracted/infracted myocardium ratio was 12.1±2.4.
# FCA-induced inflammation = assay: Accumulation in FCA-induced inflammation tissue and healthy muscle; format: in vivo; settings: rats, 3 days after administration of FCA
# Procedure: 0.1 ml of nitrosomethyl urea (NUM) was introduced i.p in female rats (150 g). When tumor reached an approximate size of 1 to 1.5 cm, FCA was injected (0.15 ml) to the hind limb footpad. Uptake assays were carried out 3 days thereafter. F-18-FBnTP (0.25 mCi) was injected via tail vein. Sixty minutes later tumor, inflamed tissue and healthy muscle tissue of the opposite limb (control) were collected on ice, weighed and counted in a gamma counter together with standards.
# The accumulation of the novel F-18-phosphonium cations, F-18-FBnTP and F-18-fluoropropyl triphenyl phosphonium (F-18-FPTP) in comparison with F-18-FDG in FCA-induced inflammation and healthy tissue is presented in Table 2. Induction of inflammation and activity counting were carried out as described above.
# [4] = mouse, in vivo, iv, 60 min
# Procedure: as §1
# prostate carcinoma = assay: Tumor selectivity in orthotopic model of prostate carcinoma; format: in vivo; settings: nude mice, normalized to muscle
# Procedure: Methods: 2×10^6 cells were injected, under anesthesia, into the prostate epithelial tissue of nude mice. When tumor reached an approximate size of 5 mm, uptake assays were performed as described above. Tumor selectivity of F-18-FBnTP and F-18-FDG was compared (3 mice in each group)
SMILES,myocardial extraction under baseline / normal flow (myocardium [1]),myocardial extraction at increased flow (myocardium [1]),"biodistribution, blood [2] [% ID/g]","biodistribution, heart [2] [% ID/g]","biodistribution, kidney [2] [% ID/g]","biodistribution, liver [2] [% ID/g]","biodistribution, lung [2] [% ID/g]","biodistribution, muscle [2] [% ID/g]","biodistribution, spleen [2] [% ID/g]","biodistribution, brain [2] [% ID/g]",Inf/Control (FCA-induced inflammation),"accumulation, Control (healthy muscle) (FCA-induced inflammation)","accumulation, Inflammation (FCA-induced inflammation)",further results
[201Tl] [Thallium 201],about 80%,about 60%,–,–,–,–,–,–,–,–,–,–,–,–
"[11CH3][P+](c1ccccc1)(c1ccccc1)c1ccccc1 [[11C]TPMP, C-11-triphenylmethyl phosphonium]",–,–,0.03 ± 0.00,13.4 ± 0.95,3.79 ± 0.83,5.68 ± 0.60,2.20 ± 0.21,2.49 ± 0.35,1.43 ± 0.18,–,–,–,–,"extraction fraction in the heart (myocardium [3]; baseline conditions, flow=69 ml/min/100 g): 91%; decrease of the extraction fraction (myocardium [3]; five-fold increase in flow by adenosine): 39%"
"[18F]CCC[P+](c1ccccc1)(c1ccccc1)c1ccccc1 [[18F]FPTP, [^18F]3-fluoropropyltriphenyl-phosphonium ion]",–,–,0.01 ± 0.00,9.86 ± 0.82,5.74 ± 0.54,4.22 ± 1.79,2.02 ± 0.34,2.06 ± 0.53,1.23 ± 0.26,0.03 ± 0.00,0.25 ± 0.04,0.29 ± 0.06 % ID/g tissue,0.07 ± 0.01 % ID/g tissue,"accumulation, Blood (FCA-induced inflammation): *0.037 ± 0.01 % ID/g tissue"
"c1ccc([P+](c2ccccc2)(c2ccccc2)c2ccccc2)cc1 [[^3H]TPP, tetraphenyl phosphonium]",–,–,–,–,–,–,–,–,–,–,–,–,–,"biodistribution, blood [4]: 0.09 ± 0.02 % ID/g; biodistribution, brain [4]: 0.06 0.02 % ID/g; biodistribution, heart [4]: 20.7 ± 1.92 % ID/g; biodistribution, kidney [4]: 4.37 ± 0.66 % ID/g; biodistribution, liver [4]: 6.12 ± 1.08 % ID/g; biodistribution, lung [4]: 2.81 ± 0.41 % ID/g; biodistribution, muscle [4]: 2.22 ± 0.41 % ID/g; biodistribution, spleen [4]: 1.93 ± 0.47 % ID/g"
"OC[C@H]1OC(O)[C@H]([18F])[C@@H](O)[C@@H]1O (stereo partly drawn) [[^18F]FDG, reference compound]",–,–,–,–,–,–,–,–,–,–,2.12 ± 0.73 and 1.20 ± 0.29,0.68 ± 0.14 % ID/g tissue and 1.05 ± 0.35 % ID/g tissue,1.42 ± 0.53 % ID/g tissue and 1.20 ± 0.16 % ID/g tissue,uptake ratio of malignant-to-normal prostate tissue (prostate carcinoma): 1.25
"[99Tc].[C-]#[N+]CC(C)(C)OC.[C-]#[N+]CC(C)(C)OC.[C-]#[N+]CC(C)(C)OC.[C-]#[N+]CC(C)(C)OC.[C-]#[N+]CC(C)(C)OC.[C-]#[N+]CC(C)(C)OC [[^99mTc]MIBI, Tc-99m-sestamibii, reference compound]",about 60%,40%,0.26 ± 0.05,5.08 ± 0.25,12.6 ± 2.57,5.55 ± 1.08,0.98 ± 0.19,1.56 ± 0.31,1.27 ± 0.33,0.08 ± 0.04,–,–,–,–
